According to the supplement of paper PMC10307832:

What was measured:
[1] = compound: C[C@]1(O)C[C@@H](c2nc(-c3ccc4ccc(-c5ccccc5)nc4c3)c3c(N)nccn32)C1 [Linsitinib]; assay: relative viability (nuclei count vs DMSO), 5 days (fraction); higher = more cells survive
Summary of the method: (§1)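 Five library-drug doses, separated by factors of √10, were pinned into 1536-well plates holding lung cancer cell lines after an overnight stay at 37 °C. Cells were fixed, permeabilised and Hoechst-stained in one step after 5 days without medium change, then imaged at 4×. Viability compares treated-well with vehicle-well nuclei, counted in MetaXpress, as a median across plates. Passing plates had control CV below 25% and at least one doubling.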

[2] = compound: Cc1ccc(C(=O)N(CCCN)[C@@H](c2nc3cc(Cl)ccc3c(=O)n2Cc2ccccc2)C(C)C)cc1 [Ispinesib]; assay: as above
Summary of the method: as §1

Row | Cell Line | relative viability ([1]; 0.01 µM) | relative viability ([1]; 0.03162 µM) | relative viability ([1]; 0.1 µM) | relative viability ([1]; 0.3162 µM) | relative viability ([1]; 1 µM) | relative viability ([1]; 1 µM, anchor plate) | relative viability ([2]; 0.001 µM) | relative viability ([2]; 0.003162 µM) | relative viability ([2]; 0.01 µM) | relative viability ([2]; 0.03162 µM) | relative viability ([2]; 0.1 µM)
1 | NCI-H1944 | 1.03 | 1.08 | 0.949 | 0.579 | 0.535 | 1.2 | 1.02 | 0.997 | 1.07 | 0.425 | 0.306
2 | HCC-827 | 1.06 | 1.02 | 1.09 |  | 1.01 | 0.967 | 1.08 | 1.07 | 1.02 | 0.929 | 0.876
3 | COR-L23 | 0.975 | 1.04 | 1.07 | 0.911 | 0.998 | 0.89 | 1.11 | 1.04 | 1.19 | 0.512 | 0.171
4 | NCI-H3122 | 0.99 | 0.947 | 1 | 0.575 | 1.02 | 1.01 | 1.09 | 1.06 | 1.01 | 0.779 | 0.172
5 | NCI-H2170 | 1.02 | 0.962 | 0.939 | 0.746 | 1.02 |  | 1.03 | 1.05 | 1.08 | 0.599 | 0.253
6 | NCI-H1793 | 0.867 | 0.906 | 0.917 | 0.757 | 0.682 | 0.903 | 0.977 | 1 | 1.19 | 0.69 | 0.201
7 | BEN | 0.945 | 0.948 | 0.832 | 0.657 | 0.933 | 0.935 | 1.12 | 1.1 | 0.983 | 0.647 | 0.378
8 | NCI-H1623 | 0.889 | 0.955 | 0.889 |  | 0.815 |  | 1.07 | 1.03 | 1.05 | 1.02 | 0.722
9 | NCI-H647 | 0.968 | 0.881 | 1.03 |  | 0.859 | 1.18 | 0.995 | 1.05 | 1.18 | 0.188 | 0.153
10 | PC-14 | 0.963 | 0.929 | 0.981 | 0.895 | 0.867 | 0.959 | 1.06 | 1.09 | 0.898 | 0.404 | 0.121
11 | HCC-78 | 0.794 | 1.03 | 0.816 | 0.868 | 0.699 | 0.538 | 0.943 | 1.04 | 1.08 | 0.533 | 0.791
12 | NCI-H1666 | 0.975 | 0.983 | 1.04 | 0.755 | 0.747 | 0.878 | 0.997 | 1.05 | 0.953 | 0.79 | 0.508
13 | COR-L 105 | 0.884 | 0.864 | 0.875 | 0.709 | 0.761 | 0.96 | 1.1 | 0.901 | 0.766 | 0.397 | 0.34
14 | LU99A | 0.915 | 0.968 | 0.899 | 0.483 | 0.738 | 0.555 | 0.976 | 1.01 | 1.03 | 0.303 | 0.269
15 | NCI-H596 | 1.04 | 0.942 | 0.998 | 0.933 | 0.886 | 1.06 | 0.993 | 0.933 | 1.03 | 0.999 | 0.444
16 | 201T | 0.988 | 0.989 | 1.01 | 0.967 | 0.911 | 1.03 | 0.978 | 1.05 | 1.03 | 0.786 | 0.367
17 | HCC-15 | 1.07 | 0.887 | 0.984 | 0.383 | 0.675 | 0.89 | 1.08 | 1.07 | 1.09 | 0.473 | 0.197
